# Source: article PMC12363935, “Unc-51 Like Kinase 3 (ULK3) is essential for autophagy and cell survival in multiple myeloma” (Research Square, 2025)
# Columns and labels:
# NTC CTRL U266 MM cells = experiment: NTC CTRL U266 in vivo model; settings: 10 mg/kg/day subcutaneously
# Excerpt: (§1) Supplementary Figure 7. ULK3 ablation suppresses MM cell growth. A. Immunoblotting for ULK3 expression in parental, NTC CTRL and ULK3 KO U266 cells. Of note, NTC CTRL and ULK3 KO were used for the in vivo ULK3 KO model. Densitometric quantification values are annotated on the blot. B. Mice (n = 20/group) were tail vein injected […]
# (§2) with 1 x106 NTC CTRL and ULK3 KO U266 MM cells. […]
# (§3) onset of the disease compared to NTC CTRL . (C) Representative confocal microscopy images of formalin fixed, paraffin embedded tumors (5-micron sections), stained for human mitochondria (hMITO) as a readout of MM cells colocalization. Alexa Fluor Plus 488 goat anti-mouse were used as secondary antibody. (D) MTS showing the inhibitory profile of MA9060 on NTC CTRL and ULK3 KO for U266 cell line. Treatment with MA9060 (0-100 uM) for 48h show reduced activity of MA9060 in ULK3 KO cell lines. E. Mice were divided respectively in two groups, vehicle control (n = 10, β-HCD Captisol) or MA9-060 (n = 10). Treatment started at day 20 (M-F, 10 mg/kg/day subcutaneously). MA9-060 treatment improves overall survival in the NTC CTRL arm (median 41 days post-tumor […]
# (§4) 38 For MA9 therapy efficacy, mice were treated with vehicle (n=10) or MA9 (10 mg/kg/day, 39 subcutaneously, M-F from day 20; n=10) (Supplementary Fig. 7E, F). Survival and toxicity 40 (weight, clinical signs) was monitored. […]
# ULK3 KO U266 MM cells = experiment: ULK3 KO U266 in vivo model; set-up: species or system mice; settings: ULK3 KO U266, 10 mg/kg/day subcutaneously, M-F from day 20
# Excerpt: as §1, §2, §3, §4
compound,measurement,setting,value
Cc1cnc(Nc2ccc(C3CCN(C)CC3)c(F)c2)nc1Nc1ccc(Cl)c(NS(=O)(=O)C(C)(C)C)c1 [MA9060],"toxicity (weight loss <20%, ruffled hair)",NTC CTRL U266 MM cells,did not show any signs of toxicity
same,median overall survival,"NTC CTRL U266 MM cells; NTC CTRL arm, M-F from day 20",41 days
same,median overall survival,ULK3 KO U266 MM cells,87 days
